The structures appear in SMILES notation. Several values for one entry are separate records, joined by “and”; a condition that tells them apart may be missing. Equal values may be shown once.

The target of series [1] is T1, acetylicholinesterase enzyme in the mouse brain (Mus musculus, UniProt P21836).
T1 construct: from tissue; host or cells: mouse brain
T1 sequence (P21836 32-614): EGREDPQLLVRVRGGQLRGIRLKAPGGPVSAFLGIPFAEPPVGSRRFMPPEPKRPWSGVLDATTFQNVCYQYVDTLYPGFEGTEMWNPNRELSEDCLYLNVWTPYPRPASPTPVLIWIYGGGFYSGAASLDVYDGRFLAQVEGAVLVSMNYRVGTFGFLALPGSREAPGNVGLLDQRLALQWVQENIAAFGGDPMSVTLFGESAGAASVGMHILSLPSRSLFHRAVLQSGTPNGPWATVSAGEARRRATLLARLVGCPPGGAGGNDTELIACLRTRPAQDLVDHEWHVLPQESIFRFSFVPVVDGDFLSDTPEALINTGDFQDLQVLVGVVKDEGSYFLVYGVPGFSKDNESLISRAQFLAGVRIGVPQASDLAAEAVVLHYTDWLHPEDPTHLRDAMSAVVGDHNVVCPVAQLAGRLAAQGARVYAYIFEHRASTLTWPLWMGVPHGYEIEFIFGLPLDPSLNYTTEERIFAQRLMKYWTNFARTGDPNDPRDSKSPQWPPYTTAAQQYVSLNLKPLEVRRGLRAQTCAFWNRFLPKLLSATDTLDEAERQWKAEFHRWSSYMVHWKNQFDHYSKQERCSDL
As to the kind of experiment: Inhibition of acetylcholinesterase in the mouse brain after single doses (class B derivatives). The format is in vivo. Particulars: single doses in the range 0.4-7mg/kg.

The subject of a further series is mice. As to the kind of experiment: Toxicity, LD50 by intraperitoneal route (class B derivatives). Particulars: death within 24 hours of 50% of the tested animals. The format is in vivo. An excerpt:
In the following table reported are LD50 values determined on mice for the listed compounds and compared with that of physostigmine administered by the same (intraperitoneal) route.

In another series the test system is motor activity. Kind of series: Antagonist effect on the stimulating effect of scopolamine (class C derivatives). The format is in vivo. The settings on record: scopolamine 1 mg/kg; oral administration. Here is the method:
This is countered by the oral administration of 2.5 mg of ES001, ES002, ES003.

Series [2] concerns mouse. Kind of series: Toxicity, LD50 by intraperitoneal route (class C derivatives). The format is in vivo. An excerpt:
In the following table reported are the LD50 values determined on mouse for the compounds listed and compared with the corresponding LD50 value for physostigmine, administered by the same (intraperitoneal) route.

Series [3] concerns anticholinesterase activity, on the mouse brain. As to the kind of experiment: Inhibition of cholinesterase activity on the mouse brain after single doses (class C derivatives). The format is in vivo. Particulars: for suppression of the enzymatic activity: even at higher doses; for duration of the inhibitory activity compared with physostigmine: mouse brain; for inhibition of the anticholinesterase activity, on the mouse brain (in words): single doses in the range 0.4-7mg/kg.

In series [4] the test system is mouse. Kind of series: Spontaneous motility, Dews method modified according to Carminati (class A derivatives). The format is in vivo. Particulars: mouse (Swiss), oral, starting from minimum doses of 4-6 mg/kg. The text has this: (§1) The Dews method was used, modified according to Carminati (Arch. int. Pharmacodyn. et Thér 181, 68,1969).
The subject of series [5] is acetylcholinesterase (AchE). The format is in vivo, Wistar male rats. The settings on record: rat, oral, 1.5 to 4.5 mg/kg.
Series [6] has as its system mice (Swiss strain). Kind of series: Acute toxicity, LD50 by oral route in mice (class A derivatives). The format is in vivo. Particulars: mouse, suspension in 2 % carboxymethylcellulose, observation 7 days. An excerpt:
The letal doses 50 (LD50) by oral route (suspension in 2 % carboxymethylcellulose) are reported herinbelow: TABLE 1

In series [7] the test system is mouse. As to the kind of experiment: Spontaneous motility, Dews method modified according to Carminati (class E derivatives). The format is in vivo. The settings on record: mouse (Strain Swiss); for decrease of the spontaneous motility (on average): oral, 0.25 mg/kg.
Text: as §1

Series [8] concerns mice (Swiss strain). Kind of series: Acute toxicity, LD50 by oral route in mice (class E derivatives). The format is in vivo. The settings on record: mouse, suspension in 2 % carboxymethylcellulose, observation 7 days. An excerpt:
The letal doses 50 (LD50) by oral route (suspension in 2 % carboxymethylcellulose) are reported herinbelow: TABLE 9

For `CN1CC[C@@]2(C)c3cc(OC(=O)NCCC(=O)O)ccc3N(C)[C@@H]12` [Compound M001], the “inhibition of acetylicholinesterase enzyme in the mouse brain (in words)” value (from here on “inhibition … in the mouse brain (in words)”) in series [1] is recorded as “dose -dependence, reversible inhibition”. Moreover, the “LD50 (mg/kg i.p.)” value in the series with mice is >20 mg/kg i.p. and <40 mg/kg i.p.

Turning to `CC(CNC(=O)Oc1ccc2c(c1)[C@]1(C)CCN(C)[C@@H]1N2C)C(=O)O` (stereo partly drawn) [Compound M002], the “inhibition … in the mouse brain (in words)” value in [1] is given as “dose -dependence, reversible inhibition”. The “LD50 (mg/kg i.p.)” value in the series with mice is >40 mg/kg i.p. and <80 mg/kg i.p.

Consider `CN1CC[C@@]2(C)c3cc(OC(=O)NCCCCCCCCC(=O)O)ccc3N(C)[C@@H]12` [Compound M003], for which the “inhibition … in the mouse brain (in words)” value in [1] is reported as “dose -dependence, reversible inhibition”. Moreover, the “LD50 (mg/kg i.p.)” value in the series with mice is >30 mg/kg i.p. and <60 mg/kg i.p.

Consider `CN1CC[C@@]2(C)c3cc(OC(=O)NC(CO)C(=O)O)ccc3N(C)[C@@H]12` (stereo partly drawn) [Compound M006], for which, in series [1], the “inhibition … in the mouse brain (in words)” value is on record as “dose -dependence, reversible inhibition”.

With `CN1CC[C@@]2(C)c3cc(OC(=O)NCC(O)CC(=O)O)ccc3N(C)[C@@H]12` (stereo partly drawn) [Compound M007], in series [1], the “inhibition … in the mouse brain (in words)” value is reported as “dose -dependence, reversible inhibition”. Also, in the series with mice, the “LD50 (mg/kg i.p.)” value was >30 mg/kg i.p. and <60 mg/kg i.p.

As to `CC(CC(=O)O)NC(=O)Oc1ccc2c(c1)[C@]1(C)CCN(C)[C@@H]1N2C` (stereo partly drawn) [Compound M008], in [1], the “inhibition … in the mouse brain (in words)” value is “dose -dependence, reversible inhibition”. The “LD50 (mg/kg i.p.)” value in the series with mice is >20 mg/kg i.p. and <40 mg/kg i.p.

Regarding `CN1CC[C@@]2(C)c3cc(OC(=O)NCCC(O)CC(=O)O)ccc3N(C)[C@@H]12` (stereo partly drawn) [Compound M009], in series [1], the “inhibition … in the mouse brain (in words)” value is “dose -dependence, reversible inhibition”. Also, in the series with mice, the “LD50 (mg/kg i.p.)” value is >20 mg/kg i.p. and <40 mg/kg i.p.

On to `CC(O)CNC(=O)Oc1ccc2c(c1)[C@]1(C)CCN(C)[C@@H]1N2C` (stereo partly drawn) [ES001, trimethyl-1,3a,8 hexahydro-1,2,3a,8,8a-pyrrol(2,3-b)indol-5(3aS,8aR)2-hydroxypropylcarbamate], for which the “oral dose countering the stimulating effect of scopolamine” value in the series with motor activity was 2.5 mg. Further, in the series on mouse [2], the “LD50 (mg/kg i.p)” value was >20 mg/kg i.p and <40 mg/kg i.p. Moreover, in [3], the “suppression of the enzymatic activity” value was “do not completely suppress the enzymatic activity”; the “duration of the inhibitory activity compared with physostigmine” value was “lasts longer than that of physostigmine”; the “inhibition of the anticholinesterase activity, on the mouse brain (in words)” value is listed as “dose-dependence, reversible inhibition”.

For `CCCCCCCC/C=C\CCCCCCCC(=O)OC(C)CNC(=O)Oc1ccc2c(c1)[C@]1(C)CCN(C)[C@@H]1N2C` (stereo partly drawn) [ES002, trimethyl-1,3a,8 hexahydro-1,2,3a,8,8a-pyrrol(2,3-b)indol-5(3aS,8aR)-2-oleoxypropylcarbamate], the “oral dose countering the stimulating effect of scopolamine” value with motor activity is 2.5 mg. The “LD50 (mg/kg i.p)” value in the series on mouse [2] is >40 mg/kg i.p and <80 mg/kg i.p. Besides, in series [3], the “suppression of the enzymatic activity” value is “do not completely suppress the enzymatic activity”; the “duration of the inhibitory activity compared with physostigmine” value is given as “lasts longer than that of physostigmine”; the “inhibition of the anticholinesterase activity, on the mouse brain (in words)” value is recorded as “dose-dependence, reversible inhibition”.

`CN1CC[C@@]2(C)c3cc(OC(=O)NCC(C)(O)c4ccccc4)ccc3N(C)[C@@H]12` (stereo partly drawn) [ES004, trimethyl-1,3a,8, hexahydro-1,2,3a, 8,8a-pyrrol (2,3-b) indol-5 (3aS,8aR)-2-hydroxy-2-phenylpropylcarbamate]: the “LD50 (mg/kg i.p)” value in the series on mouse [2] is >10 mg/kg i.p and <15 mg/kg i.p.

On to `CN1CC[C@@]2(C)c3cc(OC(=O)Nc4ccccc4O)ccc3N(C)[C@@H]12` [ES005, trimethyl-1,3a,8 hexahydro-1,2,3a,8,8a-pyrrol(2,3-b)indol-5(3aS,8aR)-2-hydroxy-phenyl-carbamate], for which, in the series with mouse [2], the “LD50 (mg/kg i.p)” value is >15 mg/kg i.p and <30 mg/kg i.p.

For the molecule `CCCCCCCCCCCCCCCCCC(=O)OC(CCCCCC)CNC(=O)Oc1ccc2c(c1)[C@]1(C)CCN(C)[C@@H]1N2C` (stereo partly drawn) [ES007, trimethyl-1,3a,8 hexahydro-1,2,3a,8,8a-pyrrol(2,3-b)indol-5-(3aS,8aR)-2-stearoyloxyoctanylcarbamate], the “LD50 (mg/kg i.p)” value with mouse [2] is >40 mg/kg i.p and <80 mg/kg i.p.

Turning to `CN1CC[C@@]2(C)c3cc(OC(=O)NCC(O)CC4CCCCC4)ccc3N(C)[C@@H]12` (stereo partly drawn) [ES008, trimethyl-1,3a,8, hexahydro-1,2,3a,8,-8a pyrrol(2,3-b)indol-5-(3aS,8aR)-3-cyclohexyl-2-hydroxypropylcarbamate], the “LD50 (mg/kg i.p)” value in the series with mouse [2] was >20 mg/kg i.p and <30 mg/kg i.p.

In the case of `CC(C)C[C@H](NC(=O)Oc1ccc2c(c1)[C@]1(C)CCN(C)[C@@H]1N2C)C(=O)O` [MGS103, (3-aS-cis) 1,2,3,3a,8,8a-hexahydro 1,3a,8-trimethyl pyrrol [2,3-b]-indol-5-ol-L-2(4-methylvaleric acid) carbamate ester], in the series with mouse [4], the “decrease of the spontaneous motility (on average)” value (shortened to “decrease … (on average)”) was approximately -30%. The “inhibitory cerebral and serumal acetylcholinesterase activity (in words)” value in series [5] was “clear inhibitory dose-dependent and reversible”. The LD50 per os with mice (Swiss strain) [6] worked out at 412.6 ± 46.34 mg/kg.

`CC(C)[C@H](NC(=O)Oc1ccc2c(c1)[C@]1(C)CCN(C)[C@@H]1N2C)C(=O)O` [MGS104, (3-as-cis) 1,2,3,3a,8,8a-hexahydro 1,3a,8-trimethyl pyrrol [2,3-b]-indol-5-ol-L-(3-methylbutyric acid) carbamate ester]: the “decrease … (on average)” value with mouse [4] was approximately -30%. Besides, the “inhibitory cerebral and serumal acetylcholinesterase activity (in words)” value in series [5] is “clear inhibitory dose-dependent and reversible”. For the same molecule, the LD50 per os in the series with mice (Swiss strain) [6] turned out to be 423.0 ± 35.21 mg/kg.

Consider `CN1CC[C@@]2(C)c3cc(OC(=O)NCC(=O)O)ccc3N(C)[C@@H]12` [MGS105, (3-as-cis) 1,2,3,3a,8,8a-hexahydro 1,3a,8-trimethyl pyrrol [2,3-b]-indol-5-ol (acetic acid) carbamate ester], for which the “decrease … (on average)” value in the series with mouse [4] is reported as approximately -30%. The “inhibitory cerebral and serumal acetylcholinesterase activity (in words)” value in [5] was “clear inhibitory dose-dependent and reversible”. Further, the LD50 per os in the series with mice (Swiss strain) [6] was 345.6 ± 24.86 mg/kg.

`CN1CC[C@@]2(C)c3cc(OC(=O)NCCCCCCCCNC(=O)Oc4ccc5c(c4)[C@]4(C)CCN(C)[C@@H]4N5C)ccc3N(C)[C@@H]12` [MS002, Salicylate of (3a S-cis) - 1,2,3a,8,8a hexahydro - 1,3a,- trimethyl pyrrol [2,3-b]-indol-5-ol-1,8-octandicarbamate ester]: in the series with mouse [7], the “oral dose causing a significant decrease of the spontaneous motility” value (“oral dose causing a significant decrease” for short) is given as 0.25 mg/kg and the “decrease … (on average)” value is recorded as approximately -25%. For the same molecule, the LD50 per os in the series with mice (Swiss strain) [8] is recorded as 48.98 ± 6.31 mg/kg.

As to `CN1CC[C@@]2(C)c3cc(OC(=O)NCCCCCNC(=O)Oc4ccc5c(c4)[C@]4(C)CCN(C)[C@@H]4N5C)ccc3N(C)[C@@H]12` [MS007, (3a S-cis) - 1,2,3,3a,8,8a hexahydro - 1,3a,8 - trimethyl pyrrol [2,3-b]-indol-5-ol-1,5-pentandicarbamate ester], in the series with mouse [7], the “oral dose causing a significant decrease” value was 0.25 mg/kg and the “decrease … (on average)” value is on record as approximately -25%. This molecule also had an LD50 per os in the series on mice (Swiss strain) [8] of 64.26 ± 10.29 mg/kg.

As to `CN1CC[C@@]2(C)c3cc(OC(=O)NCCCCCCNC(=O)Oc4ccc5c(c4)[C@]4(C)CCN(C)[C@@H]4N5C)ccc3N(C)[C@@H]12` [MS010, (3a S-cis) - 1,2,3,3a,8,8a hexahydro - 1,3a,8 - trimethyl pyrrol [2,3-b]-indol-5-ol-1,6-hexandicarbamate ester], in the series on mouse [7], the “oral dose causing a significant decrease” value was 0.25 mg/kg and the “decrease … (on average)” value is given as approximately -25%. The same molecule came in with an LD50 per os in the series on mice (Swiss strain) [8] of 50.65 ± 5.48 mg/kg.

Regarding `CN1CC[C@@]2(C)c3cc(OC(=O)NCCCCCCCNC(=O)Oc4ccc5c(c4)[C@]4(C)CCN(C)[C@@H]4N5C)ccc3N(C)[C@@H]12` [MS011, (3a S-cis) - 1,2,3,3a,8,8a hexahydro - 1,3a,8 - trimethyl pyrrol [2,3-b]-indol-5-ol-1,7-heptandicarbamate ester], in the series on mouse [7], the “oral dose causing a significant decrease” value is recorded as 0.25 mg/kg and the “decrease … (on average)” value was approximately -25%. Further, the LD50 per os in the series with mice (Swiss strain) [8] is given as 63.31 ± 9.32 mg/kg.
